Assays:
AMPK 221 = target: T1, AMPK 221 (Homo sapiens, UniProt O43741+P54646); test: Biochemical profiling of AMPK activators by AMPK221 (HTRF/TR-FRET assay, SAMS peptide, PP2A dephosphorylation protection); details: for EC50: phosphorylated AMPK 221 (α2β2δ1), 11 point dilution, duplicate, 4-parameter fit; for Emax: phosphorylated AMPK 221, maximal activation
T1 construct: open reading frames encoding the full-length α2, β2 and δ1 subunits of human AMPK; made in house; host or cells: E. coli BL21-CodonPlus (DE3)-RIPL, pET-14b
Description: (§1) The biochemical EC50 (half-maximal concentration required for full activation) of compounds for the activation of AMPK was evaluated by HTRF assay using LANCE Ultra ULight-Acetyl-CoA Carboxylase (SAMS) peptide (commercially available, Perkin Elmer catalog TRF0133-M).
The reaction was terminated after 60 minutes incubation at room temperature by the addition of 5 μL of stop and detection cocktail, which consisted of 1× Perkin Elmer Lance buffer (Perkin Elmer catalog number CR97-100), 40 mM EDTA (Thermo Fisher catalog number BP2482-100), and 2 nM Eu-anti-Acetyl CoA Carboxylase [pSer70] antibody (Perkin Elmer, TRF0208-M). Plates were spun at 1000 RPM, 10 seconds.

AMPK 111 = target: T2, AMPK 111 (Homo sapiens, UniProt Q13131+Q9Y478); test: Biochemical profiling of AMPK activators by AMPK111 (HTRF/TR-FRET assay, SAMS peptide, PP2A dephosphorylation protection); details: for EC50: phosphorylated AMPK 111 (α1β1δ1 as printed), 11 point dilution, duplicate, 4-parameter fit; for Emax: phosphorylated AMPK 111, maximal activation
T2 construct: open reading frames encoding the full-length α1, β1 and δ1 subunits of human AMPK; made in house; host or cells: E. coli BL21-CodonPlus (DE3)-RIPL, pET-14b
Description: as §1
Following a fifteen-minute room temperature incubation, 5 μL of 30 nM protein phosphatase PP2A (isolation detailed above) diluted in the assay buffer was added to the plate, to dephosphorylate pThr172 of AMPK. […] The reaction was terminated after 60 minutes incubation at room temperature, by the addition of 5 μL of stop and detection cocktail, which consisted of 1× Perkin Elmer Lance buffer (Perkin Elmer catalog number CR97-100), 40 mM EDTA (Thermo Fisher catalog number BP2482-100), and 2 nM Eu-anti-Acetyl CoA Carboxylase [pSer70] antibody (Perkin Elmer, TRF0208-M).

T1 sequence (P54646 whole entry): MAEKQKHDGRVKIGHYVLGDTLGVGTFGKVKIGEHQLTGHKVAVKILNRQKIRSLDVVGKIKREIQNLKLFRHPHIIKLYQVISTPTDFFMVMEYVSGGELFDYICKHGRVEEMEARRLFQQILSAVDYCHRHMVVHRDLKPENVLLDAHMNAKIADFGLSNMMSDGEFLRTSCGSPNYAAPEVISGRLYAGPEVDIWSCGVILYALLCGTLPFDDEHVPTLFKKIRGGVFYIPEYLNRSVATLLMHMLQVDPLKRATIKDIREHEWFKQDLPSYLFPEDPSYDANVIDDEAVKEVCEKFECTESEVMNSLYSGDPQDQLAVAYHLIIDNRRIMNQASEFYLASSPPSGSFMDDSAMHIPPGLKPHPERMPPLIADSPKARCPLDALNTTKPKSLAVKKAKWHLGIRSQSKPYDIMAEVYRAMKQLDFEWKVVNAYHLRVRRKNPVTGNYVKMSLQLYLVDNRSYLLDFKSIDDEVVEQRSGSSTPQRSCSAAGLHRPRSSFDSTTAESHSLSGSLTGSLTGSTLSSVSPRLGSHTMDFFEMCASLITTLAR
T1 sequence (O43741 whole entry): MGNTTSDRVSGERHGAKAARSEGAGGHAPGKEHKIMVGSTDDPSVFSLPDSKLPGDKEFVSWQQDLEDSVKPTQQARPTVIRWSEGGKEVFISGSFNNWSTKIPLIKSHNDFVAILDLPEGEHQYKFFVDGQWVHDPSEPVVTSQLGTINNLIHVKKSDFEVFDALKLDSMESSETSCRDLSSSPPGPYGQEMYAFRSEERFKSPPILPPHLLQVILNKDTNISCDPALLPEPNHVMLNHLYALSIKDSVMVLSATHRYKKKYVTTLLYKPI
T1 sequence (P54619 whole entry partner): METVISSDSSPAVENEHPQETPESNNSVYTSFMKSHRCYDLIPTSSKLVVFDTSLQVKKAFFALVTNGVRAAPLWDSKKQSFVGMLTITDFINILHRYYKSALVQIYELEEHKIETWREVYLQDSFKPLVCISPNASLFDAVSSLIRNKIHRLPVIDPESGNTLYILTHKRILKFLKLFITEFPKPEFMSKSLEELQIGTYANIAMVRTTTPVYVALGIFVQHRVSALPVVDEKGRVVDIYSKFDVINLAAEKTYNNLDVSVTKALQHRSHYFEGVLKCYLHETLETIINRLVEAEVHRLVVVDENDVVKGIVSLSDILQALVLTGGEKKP
T2 sequence (Q13131 whole entry): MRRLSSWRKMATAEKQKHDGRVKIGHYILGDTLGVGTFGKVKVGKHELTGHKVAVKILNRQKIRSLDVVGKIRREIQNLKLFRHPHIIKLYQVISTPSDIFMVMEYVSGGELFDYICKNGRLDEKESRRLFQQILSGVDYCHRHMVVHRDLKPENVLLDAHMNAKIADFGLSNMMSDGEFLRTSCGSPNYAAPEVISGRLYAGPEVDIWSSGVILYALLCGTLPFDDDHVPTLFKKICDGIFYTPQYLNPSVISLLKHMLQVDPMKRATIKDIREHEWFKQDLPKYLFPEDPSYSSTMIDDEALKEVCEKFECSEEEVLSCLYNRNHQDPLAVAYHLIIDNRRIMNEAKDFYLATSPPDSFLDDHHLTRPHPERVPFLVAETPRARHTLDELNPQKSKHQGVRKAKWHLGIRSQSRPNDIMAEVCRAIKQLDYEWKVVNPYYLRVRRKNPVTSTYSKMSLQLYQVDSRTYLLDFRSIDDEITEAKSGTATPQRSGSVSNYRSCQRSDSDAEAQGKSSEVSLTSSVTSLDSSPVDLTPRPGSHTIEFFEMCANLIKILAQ
T2 sequence (Q9Y478 whole entry): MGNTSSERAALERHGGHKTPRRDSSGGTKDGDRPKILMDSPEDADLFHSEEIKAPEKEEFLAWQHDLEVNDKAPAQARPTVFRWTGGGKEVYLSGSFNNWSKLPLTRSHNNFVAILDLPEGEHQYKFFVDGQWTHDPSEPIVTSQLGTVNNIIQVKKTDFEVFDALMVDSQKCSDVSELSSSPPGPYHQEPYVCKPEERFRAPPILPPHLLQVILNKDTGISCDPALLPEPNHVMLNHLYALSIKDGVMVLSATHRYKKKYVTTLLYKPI
T2 sequence (P54619 whole entry partner): as the sequence (P54619 whole entry partner) above

EC50 (AMPK 221)	Emax (AMPK 221)	EC50 (AMPK 111)	Emax (AMPK 111)	Compound
136 nM	63%	277 nM	73%	COc1c(Cl)ccc(-c2ccc(-c3cc4c(CCC(=O)O)n[nH]c4cc3Cl)cc2)c1O [Example 28, 3-(6-chloro-5-(4′-chloro-2′-hydroxy-3′-methoxy-[1,1′-biphenyl]-4-yl)-1H-indazol-3-yl)propanoic acid]
162 nM	63%	46 nM	72%	CN(C)C(=O)c1ccc(-c2ccc(-c3cc4c(CCC(=O)O)n[nH]c4cc3Cl)cc2)cc1 [Example 29, 3-(6-chloro-5-(4′-(dimethylcarbamoyl)-[1,1′-biphenyl]-4-yl)-1H-indazol-3-yl)propanoic acid]
173 nM	65%	36 nM	80%	NC(=O)Cc1ccc(-c2ccc(-c3cc4c(CCC(=O)O)n[nH]c4cc3Cl)cc2)cc1 [Example 30, 3-(5-(4′-(2-amino-2-oxoethyl)-[1,1′-biphenyl]-4-yl)-6-chloro-1H-indazol-3-yl)propanoic acid]
190 nM	61%	57 nM	84%	COC(=O)c1ccc(-c2ccc(-c3cc4c(CCC(=O)O)n[nH]c4cc3Cl)cc2)c(O)c1 [Example 31, 3-(6-Chloro-5-(2′-hydroxy-4′-(methoxycarbonyl)-[1,1′-biphenyl]-4-yl)-1H-indazol-3-yl)propanoic acid]
198 nM	41%	136 nM	71%	CS(=O)(=O)Nc1ccc(-c2ccc(-c3cc4c(CCC(=O)O)n[nH]c4cc3Cl)cc2)cc1 [Example 32, 3-(6-chloro-5-(4′-(methylsulfonamido)-[1,1′-biphenyl]-4-yl)-1H-indazol-3-yl)propanoic acid]
196 nM	57%	301 nM	57%	O=C(O)CCc1n[nH]c2cc(F)c(-c3ccc(-c4ccccc4O)cc3)cc12 [Example 33, 3-(6-fluoro-5-(2′-hydroxy-[1,1′-biphenyl]-4-yl)-1H-indazol-3-yl)propanoic acid]
197 nM	50%	228 nM	68%	Cc1ccc(-c2ccc(-c3cc4c(CCC(=O)O)n[nH]c4cc3Cl)cc2)c(O)c1 [Example 34, 3-(6-chloro-5-(2′-hydroxy-4′-methyl-[1,1′-biphenyl]-4-yl)-1H-indazol-3-yl)propanoic acid]
198 nM	47%	137 nM	67%	N#Cc1cc2[nH]nc(CCC(=O)O)c2cc1-c1ccc(-c2ccccc2O)cc1 [Example 35, 3-(6-cyano-5-(2′-hydroxy-[1,1′-biphenyl]-4-yl)-1H-indazol-3-yl)propanoic acid]
200 nM	49%	45 nM	68%	O=C(O)CCc1n[nH]c2cc(Cl)c(-c3ccc(-c4ccc(C(=O)O)cc4O)cc3)cc12 [Example 36, 4′-(3-(2-carboxyethyl)-6-chloro-1H-indazol-5-yl)-2-hydroxy-[1,1′-biphenyl]-4-carboxylic acid]
205 nM	52%	464 nM	70%	CC(C)Oc1cccc(-c2ccc(-c3cc4c(CCC(=O)O)n[nH]c4cc3Cl)cc2)c1O [Example 37, 3-(6-chloro-5-(2′-hydroxy-3′-isopropoxy-[1,1′-biphenyl]-4-yl)-1H-indazol-3-yl)propanoic acid]
209 nM	64%	95 nM	67%	O=C(O)CCc1n[nH]c2cc(Cl)c(-c3ccc(-c4ccc(OCCN5CCOCC5)cc4)cc3)cc12 [Example 38, 3-(6-chloro-5-(4′-(2-morpholinoethoxy)-[1,1′-biphenyl]-4-yl)-1H-indazol-3-yl)propanoic acid]
218 nM	59%	109 nM	69%	CC(=O)N(C)c1ccc(-c2ccc(-c3cc4c(CCC(=O)O)n[nH]c4cc3Cl)cc2)cc1 [Example 39, 3-(6-chloro-5-(4′-(N-methylacetamido)-[1,1′-biphenyl]-4-yl)-1H-indazol-3-yl)propanoic acid]
306 nM	68%	92 nM	85%	NS(=O)(=O)c1ccc(-c2ccc(-c3cc4c(CCC(=O)O)n[nH]c4cc3Cl)cc2)cc1 [Example 40, 3-(6-chloro-5-(4′-sulfamoyl-[1,1′-biphenyl]-4-yl)-1H-indazol-3-yl)propanoic acid]
235 nM	65%	70 nM	66%	CC(=O)NCc1ccc(-c2ccc(-c3cc4c(CCC(=O)O)n[nH]c4cc3Cl)cc2)cc1 [Example 41, 3-(5-(4′-(acetamidomethyl)-[1,1′-biphenyl]-4-yl)-6-chloro-1H-indazol-3-yl)propanoic acid]
244 nM	64%	291 nM	68%	COc1cc(F)cc(-c2ccc(-c3cc4c(CCC(=O)O)n[nH]c4cc3Cl)cc2)c1O [Example 42, 3-(6-chloro-5-(5′-fluoro-2′-hydroxy-3′-methoxy-[1,1′-biphenyl]-4-yl)-1H-indazol-3-yl)propanoic acid]
248 nM	62%	51 nM	80%	O=C(O)CCCc1n[nH]c2cc(Cl)c(-c3ccc(-c4ccccc4O)cc3)cc12 [Example 43, 4-(6-chloro-5-(2′-hydroxy-[1,1′-biphenyl]-4-yl)-1H-indazol-3-yl)butanoic acid]
204 nM	52%	85 nM	79%	CS(=O)(=O)c1ccc(-c2ccc(-c3cc4c(CCC(=O)O)n[nH]c4cc3Cl)cc2)cc1 [Example 44, 3-(6-chloro-5-(4′-(methylsulfonyl)-[1,1′-biphenyl]-4-yl)-1H-indazol-3-yl)propanoic acid]
263 nM	66%	123 nM	82%	O=C(O)CCc1n[nH]c2cc(Cl)c(-c3ccc(-c4cccc(Cl)c4O)cc3)cc12 [Example 45, 3-(6-chloro-5-(3′-chloro-2′-hydroxy-[1,1′-biphenyl]-4-yl)-1H-indazol-3-yl)propanoic acid]
267 nM	59%	20 nM	82%	O=C(O)CCc1n[nH]c2cc(Cl)c(-c3ccc(-c4c(O)cccc4Cl)cc3)cc12 [Example 46, 3-(6-chloro-5-(2′-chloro-6′-hydroxy-[1,1′-biphenyl]-4-yl)-1H-indazol-3-yl)propanoic acid]
282 nM	59%	113 nM	83%	O=C(O)CCc1n[nH]c2cc(Cl)c(-c3ccc(-c4ccc(F)cc4O)cc3)cc12 [Example 47, 3-(6-chloro-5-(4′-fluoro-2′-hydroxy-[1,1′-biphenyl]-4-yl)-1H-indazol-3-yl)propanoic acid]
367 nM	9%	365 nM	43%	Cc1ccccc1-c1ccc(-c2cc3c(CCC(=O)O)n[nH]c3cc2Cl)cc1 [Example 48, 3-(6-chloro-5-(2′-methyl-[1,1′-biphenyl]-4-yl)-1H-indazol-3-yl)propanoic acid]

Reference: US20240336572A1, “SUBSTITUTED INDAZOLE PROPIONIC ACID DERIVATIVE COMPOUNDS AND USES THEREOF” (Pfizer Inc., priority 2023, published 2024)
